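Cultured in 96-well plates, cells were exposed to test compound for 48 hours across five concentrations. TGI marks complete inhibition of growth.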

The first test has as its system BT-549 breast. Briefly: growth of human tumour cells (NCI), 48 h.
The compound `NC(C(F)(F)F)(C(F)(F)F)P(=O)(Cc1ccccc1)Cc1ccccc1` gave a TGI above 100 µM.

In the case of `O=C(CCCCCCCCC(=O)NN1C(=O)/C(=C\c2ccc(O)c(O)c2)SC1c1ccc(Cl)cc1)NN1C(=O)/C(=C\c2ccc(O)c(O)c2)SC1c1ccc(Cl)cc1` (stereo not drawn), the TGI was above 100 µM.

As to `CC(C)Sc1nc(C#N)cc2c1CCCC2`, the TGI was above 100 µM.

For the compound `O=C(CC(=O)n1nc(-c2ccccc2)c(N=Nc2ccccc2C(=O)O)c1-c1ccccc1)Nc1ccc(Cl)cc1`, the TGI was found to be 93 µM.

For the compound `Oc1ccc(/C=C/c2cc(O)cc(O)c2)cc1`, the TGI was above 100 µM.

As for `O=C(CN1c2ccccc2Sc2ccccc21)N1CCNCC1`, the TGI is above 100 µM.

As to `O=C(O)c1c2c(cc3c1CC1(Cc4ccccc4C1)C3)CCC2`, the TGI is above 100 µM.

`Cc1nc(-c2ccc([N+](=O)[O-])cc2)cn2c1nc1ccccc12` showed a TGI above 100 µM.

On to `c1ccc2c(c1)OC(N1CCCC1)c1cnc(N3CCCC3)nc1-2` (stereo not drawn), for which the TGI amounted to 60.9 µM.

Turning to `Cc1ccc(-c2c(C#N)c(-c3ccccc3)n(NS(=O)(=O)c3ccccc3)c(=O)c2C#N)cc1`, the TGI was above 100 µM.

`CCCCN1C(=O)CC2[C@@H]3CCc4cc(OC(C)=O)ccc4C3CC[C@]2(C)C1=O` (stereo partly drawn) yielded a TGI above 10 µM.

The next test concerns K-562 leukemia. Briefly: growth of human tumour cells (NCI), 48 h.
For the compound `NC(C(F)(F)F)(C(F)(F)F)P(=O)(Cc1ccccc1)Cc1ccccc1`, the TGI is above 100 µM.

In turn, `O=C(O)CSc1nnc(COc2ccc(Cl)cc2)n1-c1ccccc1` gave a TGI above 100 µM.

In turn, `CC[C@]1(Cc2ccc(OC)c(OC)c2)CN(S(=O)(=O)c2ccc(C)cc2)C[C@@H]1OC(C)=O` had a TGI above 100 µM.

In the case of `COc1ccccc1N/C(=C\C(=O)C(=O)NC12CC3CC(CC(C3)C1)C2)c1ccccc1`, the TGI is above 10 µM.

`O=C(CCCCCCCCC(=O)NN1C(=O)/C(=C\c2ccc(O)c(O)c2)SC1c1ccc(Cl)cc1)NN1C(=O)/C(=C\c2ccc(O)c(O)c2)SC1c1ccc(Cl)cc1` (stereo not drawn): the TGI was above 75.9 µM.

As for `CC(C)Sc1nc(C#N)cc2c1CCCC2`, the TGI was above 100 µM.

`O=C(CC(=O)n1nc(-c2ccccc2)c(N=Nc2ccccc2C(=O)O)c1-c1ccccc1)Nc1ccc(Cl)cc1` yielded a TGI above 100 µM.

Consider `CN1C(=O)N(c2ccccc2)C2(CCN(CC3COc4ccccc4O3)CC2)C1=O` (stereo not drawn), for which the TGI was above 100 µM.

Regarding `CCOC(=O)C1Cc2[nH]c3ccccc3c2C(C)C1C` (stereo not drawn), the TGI was above 100 µM.

`O=C(CN1c2ccccc2Sc2ccccc21)N1CCNCC1` registered a TGI above 100 µM.

Compound `O=C(O)c1c2c(cc3c1CC1(Cc4ccccc4C1)C3)CCC2` registered a TGI above 100 µM.

Compound `Cc1nc(-c2ccc([N+](=O)[O-])cc2)cn2c1nc1ccccc12` displayed a TGI above 100 µM.

Regarding `CN(C)CCCOC(=O)C(c1ccccc1)C1(O)CCSCC1` (stereo not drawn), the TGI is above 100 µM.

`COc1cc(-c2cc(=O)c3cc4c(cc3[nH]2)OCO4)cc(OC)c1O` displayed a TGI above 10 µM.

`C[C@@]12[C@H]3CC[C@@H]1[C@H](O)C(=O)N2CC3` had a TGI above 100 µM.

In turn, `Cn1cc2ccccc2c1-c1nc(N)nc(F)n1` returned a TGI above 100 µM.

The compound `O=C1CCC[C@@H]2NC[C@@H](c3ccc4c(c3)OCO4)[C@H]12` returned a TGI above 25 µM.

Turning to `O=C(Nc1ccc(Br)cc1)c1c(-c2ccccc2)c2ccc(O)cc2oc1=O`, the TGI is above 10 µM.

As to `c1ccc2c(c1)OC(N1CCCC1)c1cnc(N3CCCC3)nc1-2` (stereo not drawn), the TGI was above 100 µM.

Consider `CC1=C(O)C(=O)[C@@H]2O[C@@H]2C1=O`, for which the TGI was determined as 42.7 µM.

`CC(O[Si](c1ccccc1)(c1ccccc1)C(C)(C)C)[C@H](NC(=O)OC(C)(C)C)C(=O)O[Si](c1ccccc1)(c1ccccc1)C(C)(C)C` (stereo partly drawn) gave a TGI of 40.6 µM.

Take `Cc1ccc(-c2c(C#N)c(-c3ccccc3)n(NS(=O)(=O)c3ccccc3)c(=O)c2C#N)cc1`: the TGI was above 100 µM.

In turn, `COc1ccc(C(C#N)NNC(=O)c2ccccc2O)cc1OC` (stereo not drawn) returned a TGI above 100 µM.

As to `O=c1[nH]n2c(=O)cc[nH]c2c1-c1nnns1`, the TGI was above 100 µM.

Regarding `CC(CN1c2ccccc2Sc2ccccc21)N(C)C` (stereo not drawn), the TGI amounted to 36.1 µM.

As for `N.N.N.O=[N+]([O-])[O-].O=[N+]([O-])[O-].O=[N+]([O-])[O-].O=[N+]([O-])[O-].[Co+3]`, the TGI is above 100 µM.

For the compound `Cc1nnc(Nc2ccccc2)o1`, the TGI was above 100 µM.

With `CCCCN1C(=O)CC2[C@@H]3CCc4cc(OC(C)=O)ccc4C3CC[C@]2(C)C1=O` (stereo partly drawn), the TGI is above 10 µM.

In a further test the test system is OVCAR-5 ovarian. Briefly: growth of human tumour cells (NCI), 48 h.
On to `NC(C(F)(F)F)(C(F)(F)F)P(=O)(Cc1ccccc1)Cc1ccccc1`, for which the TGI was above 100 µM.

`O=C(O)CSc1nnc(COc2ccc(Cl)cc2)n1-c1ccccc1` returned a TGI above 100 µM.

The compound `Cc1cc(N(CCC#N)CCC#N)ccc1/C=N/NC(=O)c1cc(Cl)ccc1O` returned a TGI above 100 µM.

On to `CC[C@]1(Cc2ccc(OC)c(OC)c2)CN(S(=O)(=O)c2ccc(C)cc2)C[C@@H]1OC(C)=O`, for which the TGI was above 100 µM.

Regarding `COc1ccccc1N/C(=C\C(=O)C(=O)NC12CC3CC(CC(C3)C1)C2)c1ccccc1`, the TGI is above 10 µM.

In turn, `CC(C)(C)c1ccc2c(c1)CNCCNCc1cc(C(C)(C)C)ccc1OCC1(CO2)COc2ccc(C(C)(C)C)cc2CNCCNCc2cc(C(C)(C)C)ccc2OC1` came in with a TGI of 3.06 µM.

For the compound `O=C(CCCCCCCCC(=O)NN1C(=O)/C(=C\c2ccc(O)c(O)c2)SC1c1ccc(Cl)cc1)NN1C(=O)/C(=C\c2ccc(O)c(O)c2)SC1c1ccc(Cl)cc1` (stereo not drawn), the TGI was above 100 µM.

As to `CC(C)Sc1nc(C#N)cc2c1CCCC2`, the TGI is above 100 µM.

`O=C(CC(=O)n1nc(-c2ccccc2)c(N=Nc2ccccc2C(=O)O)c1-c1ccccc1)Nc1ccc(Cl)cc1` had a TGI above 100 µM.

The compound `CN1C(=O)N(c2ccccc2)C2(CCN(CC3COc4ccccc4O3)CC2)C1=O` (stereo not drawn) yielded a TGI above 100 µM.

`CCOC(=O)C1Cc2[nH]c3ccccc3c2C(C)C1C` (stereo not drawn) yielded a TGI of 32.2 µM.

`Oc1ccc(/C=C/c2cc(O)cc(O)c2)cc1`: the TGI was above 100 µM.

Take `O=C(CN1c2ccccc2Sc2ccccc21)N1CCNCC1`: the TGI is above 100 µM.

In turn, `O=C(O)c1c2c(cc3c1CC1(Cc4ccccc4C1)C3)CCC2` displayed a TGI above 100 µM.

`Cc1nc(-c2ccc([N+](=O)[O-])cc2)cn2c1nc1ccccc12` had a TGI above 100 µM.

Consider `CN(C)CCCOC(=O)C(c1ccccc1)C1(O)CCSCC1` (stereo not drawn), for which the TGI was above 100 µM.

Compound `COc1cc(-c2cc(=O)c3cc4c(cc3[nH]2)OCO4)cc(OC)c1O` registered a TGI above 10 µM.

Regarding `C[C@@]12[C@H]3CC[C@@H]1[C@H](O)C(=O)N2CC3`, the TGI was above 100 µM.

For the compound `Cn1cc2ccccc2c1-c1nc(N)nc(F)n1`, the TGI is above 100 µM.

For `O=C1CCC[C@@H]2NC[C@@H](c3ccc4c(c3)OCO4)[C@H]12`, the TGI was above 25 µM.

In the case of `O=C(Nc1ccc(Br)cc1)c1c(-c2ccccc2)c2ccc(O)cc2oc1=O`, the TGI was above 10 µM.

As to `c1ccc2c(c1)OC(N1CCCC1)c1cnc(N3CCCC3)nc1-2` (stereo not drawn), the TGI is above 100 µM.

Take `CC1=C(O)C(=O)[C@@H]2O[C@@H]2C1=O`: the TGI stood at 33.9 µM.

As to `CC(O[Si](c1ccccc1)(c1ccccc1)C(C)(C)C)[C@H](NC(=O)OC(C)(C)C)C(=O)O[Si](c1ccccc1)(c1ccccc1)C(C)(C)C` (stereo partly drawn), the TGI was determined as 30.4 µM.

(Values after PubChem BioAssay (NCI).)
